Experimental data: patent publication US20260217692A1 (Ascentage Pharma (Suzhou) Co., Ltd., priority 2023, published 2026)
Where “and” joins values, the source holds several entries; their conditions need not be identical. Identical values can stand only once. Counter-ions that a name gives are not always drawn.

Tests used:
Assay type in all cases: physicochemical
[1] = Dynamic vapor sorption (DVS) hygroscopicity test; details: for hygroscopic weight gain (DVS curve): 25° C. and 80% RH
From the text: In the present disclosure, the DVS test parameters are set as follows: [table]

[2] = Stability of crystal forms under stability test conditions (appearance, XRPD, HPLC); details: for Total impurities: HPLC
Procedure: The samples were placed under the stability conditions shown in the following table, sampling was performed at the corresponding time points, and the samples were subjected to appearance and XRPD tests. […] The stability results obtained are recorded in the following table. […] The samples were placed under the stability test conditions shown in the following table, sampling was performed at different time points, and the samples were subjected to the XRPD test. […] The samples were placed in an open state under the stability test conditions of 40° C./75% RH and 90% RH; and the samples were placed in a closed state at 60° C. in a light box (the test samples in the dark were placed in the same manner as the illumination test samples, and the treatment was performed in the dark). Sampling was performed at different time points, and the samples were subjected to the XRPD test. […] The samples were placed under the stability conditions shown in the following table, sampling was performed at the corresponding time points, and the samples were subjected to appearance and XRPD tests. […] The stability results obtained are recorded in the following table.

[3] = Polymorph screening test, suspension method (crystal form by XRPD after stirring in solvent)
Procedure: (or 50° C.) for 3 days in the dark and centrifuged to remove the supernatant; the resulting precipitate was dried under vacuum (25° C., −0.1 MPa); and the resulting solid was collected and subjected to the XRPD test. The results are as follows:
(or 50° C./80° C.) for 3 days in the dark and centrifuged to remove the supernatant; and the resulting precipitate was dried under vacuum (25° C., −0.1 MPa).
(or 50° C.) for 3 days in the dark and centrifuged to remove the supernatant; and the resulting precipitate was dried under vacuum (25° C., −0.1 MPa).

[4] = Illumination (1 ICH), 5 d and 10 d
[5] = 0 d, listed as Crystal form D of the compound represented by formula I

Structure (SMILES): Cc1cc(Nc2ncc(Cl)c(Nc3ccccc3S(=O)(=O)C(C)C)n2)c(OC(C)C)cc1C1=CCN(C2CCOCC2)CC1.Cl
- hygroscopic weight gain (DVS curve) [1]: 0.15%
- Appearance ([2]; 0 d): Pale yellow powder
- Total impurities ([2]; 0 d): 0.10%
- Total impurities ([2]; 40° C./75% RH, 5 d): 0.18%
- Total impurities ([2]; 40° C./75% RH, 10 d): 0.53%
- Appearance ([2]; 40° C./75% RH, 30 d): Color deepening
- Total impurities ([2]; 40° C./75% RH, 30 d): 1.09%
- Total impurities ([2]; 60° C., 5 d): 0.15%
- Total impurities ([2]; 60° C., 10 d): 0.23%
- Total impurities ([2]; 60° C., 30 d): 0.21%
- Total impurities ([2]; 90% RH, 5 d): 0.17%
- Total impurities ([2]; 90% RH, 10 d): 0.28%
- Appearance ([2]; 90% RH, 30 d): Color deepening
- Total impurities ([2]; 90% RH, 30 d): 0.41%
- Total impurities ([2]; Illumination (1 ICH), 5 d): 0.39%
- Appearance [2, 4]: Color deepening
- Total impurities ([2]; Illumination (1 ICH), 10 d): 0.51%
- Total impurities ([2]; In the dark, 5 d): 0.07%
- Total impurities ([2]; In the dark, 10 d): 0.16%

Structure (SMILES): Cc1cc(Nc2ncc(Cl)c(Nc3ccccc3S(=O)(=O)C(C)C)n2)c(OC(C)C)cc1C1=CCN(C2CCOCC2)CC1 [crystal form D]
- hygroscopic weight gain (DVS curve) [1]: 0.14±0.005% and 0.14%
- XRPD ([2]; 0 d): No significant change
- Total impurities [2, 5]: 0.14%
- Appearance [2, 5]: No significant change
- Total impurities ([2]; 25° C./60% RH, 1 M): 0.17%
- Total impurities ([2]; 25° C./60% RH, 10 d): 0.14%
- Appearance ([2]; 25° C./60% RH, 10 d and 1 M): No significant change
- XRPD ([2]; 25° C./60% RH, 10 d and 1 M): No significant change
- Total impurities ([2]; 40° C./75% RH, 1 M, listed as Crystal form D of the compound represented by formula I): 0.17%
- Total impurities ([2]; 40° C./75% RH, 10 d, listed as Crystal form D of the compound represented by formula I): 0.17%
- XRPD ([2]; 40° C./75% RH, 10 d and 1 M): No significant change
- Appearance ([2]; 40° C./75% RH, 10 d and 1 M, listed as Crystal form D of the compound represented by formula I): No significant change
- Total impurities ([2]; 60° C., 1 M, listed as Crystal form D of the compound represented by formula I): 0.20%
- Total impurities ([2]; 60° C., 10 d, listed as Crystal form D of the compound represented by formula I): 0.17%
- XRPD ([2]; 60° C., 10 d and 1 M): No significant change
- Appearance ([2]; 60° C., 10 d and 1 M, listed as Crystal form D of the compound represented by formula I): No significant change
- Total impurities ([2]; 90% RH, 1 M, listed as Crystal form D of the compound represented by formula I): 0.17%
- Total impurities ([2]; 90% RH, 10 d, listed as Crystal form D of the compound represented by formula I): 0.17%
- XRPD ([2]; 90% RH, 10 d and 1 M): No significant change
- Appearance ([2]; 90% RH, 10 d and 1 M, listed as Crystal form D of the compound represented by formula I): No significant change
- Total impurities ([2]; Illumination, 5 d, listed as Crystal form D of the compound represented by formula I): 0.17%
- Appearance ([2]; Illumination, 5 d and 10 d): Color deepening
- XRPD ([2]; Illumination, 5 d and 10 d): No significant change
- Total impurities ([2]; Illumination, 10 d, listed as Crystal form D of the compound represented by formula I): 2.43%
- Total impurities ([2]; In the dark, 5 d, listed as Crystal form D of the compound represented by formula I): 0.17%
- XRPD ([2]; In the dark, 5 d and 10 d): No significant change
- Appearance ([2]; In the dark, 5 d and 10 d, listed as Crystal form D of the compound represented by formula I): No significant change
- Total impurities ([2]; In the dark, 10 d, listed as Crystal form D of the compound represented by formula I): 0.14%

Structure (SMILES): Cc1cc(Nc2ncc(Cl)c(Nc3ccccc3S(=O)(=O)C(C)C)n2)c(OC(C)C)cc1C1=CCN(C2CCOCC2)CC1 [one equivalent of maleate crystal form A]
- hygroscopic weight gain (DVS curve) [1]: 0.11±0.005% and 0.11%
- hygroscopicity (DVS result in words) ([1]; 80% RH): no hygroscopicity
- crystal form before and after the hygroscopic test ([1]; DVS): did not change
- stability of crystal form in solvent, suspension method ([3]; ethanol, isopropanol, acetone, ethyl acetate, isopropyl acetate, methyl tert-butyl ether, dichloromethane, tetrahydrofuran, toluene, n-heptane, dioxane, methyl acetate, 2-methyltetrahydrofuran, cyclohexane, n-hexane, methyl ethyl ketone, or methyl isobutyl ketone): relatively good stability
- crystal form when stirred in solvent ([3]; same solvents as in b585 at 25-50° C.): remained stable
- Appearance ([2]; 0 d): Pale yellow powder
- Crystal form (XRPD) ([2]; 0 d): Maleate crystal form A
- Total impurities ([2]; 0 d): 0.12%
- Crystal form (XRPD) ([2]; 40° C./75% RH, 5 d, 10 d and 30 d): Maleate crystal form A
- Total impurities ([2]; 40° C./75% RH, 5 d): 0.16%
- Total impurities ([2]; 40° C./75% RH, 10 d): 0.14%
- Total impurities ([2]; 40° C./75% RH, 30 d): 0.29%
- Crystal form (XRPD) ([2]; 60° C., 5 d, 10 d and 30 d): Maleate crystal form A
- Total impurities ([2]; 60° C., 5 d): 0.16%
- Total impurities ([2]; 60° C., 10 d): 0.21%
- Total impurities ([2]; 60° C., 30 d): 0.16%
- Crystal form (XRPD) ([2]; 90% RH, 5 d, 10 d and 30 d): Maleate crystal form A
- Total impurities ([2]; 90% RH, 5 d): 0.14%
- Total impurities ([2]; 90% RH, 10 d): 0.25%
- Total impurities ([2]; 90% RH, 30 d): 0.26%
- Total impurities ([2]; Illumination (1 ICH), 5 d): 0.26%
- Appearance [2, 4]: Color deepening
- Crystal form (XRPD) [2, 4]: Maleate crystal form A
- Total impurities ([2]; Illumination (1 ICH), 10 d): 0.65%
- Total impurities ([2]; In the dark, 5 d): 0.12%
- Crystal form (XRPD) ([2]; In the dark, 5 d and 10 d): Maleate crystal form A
- Total impurities ([2]; In the dark, 10 d): 0.18%
